Source: the NIST ThermoML archive (doi:10.1021/acs.jced.5b00251)

Experiment: refractive index (other wavelength) (dimensionless); xn = mol fraction of the nth substance listed
Details: 101 kPa, Liquid, Standard Abbe refractometry

CC(C)Cc1ccccc1 [(2-methylpropyl)benzene] + c1ccc2c(c1)CCCC2
refractive index
Details | x2 = 0.1014 | x2 = 0.2024 | x2 = 0.3032 | x2 = 0.4036 | x2 = 0.5038 | x2 = 0.6036 | x2 = 0.7032 | x2 = 0.8024 | x2 = 0.9014
293.15 K, Wavelength=436.1 nm | 1.50977 | 1.51503 | 1.52078 | 1.52612 | 1.53208 | 1.53797 | 1.54392 | 1.55007 | 1.55611
293.15 K, Wavelength=513.9 nm | 1.49809 | 1.50316 | 1.5087 | 1.51409 | 1.51959 | 1.52525 | 1.53097 | 1.5369 | 1.54273
293.15 K, Wavelength=589.3 nm | 1.49141 | 1.49657 | 1.50199 | 1.50701 | 1.51266 | 1.51821 | 1.52382 | 1.52961 | 1.53531
293.15 K, Wavelength=633.2 nm | 1.4889 | 1.49381 | 1.49922 | 1.50445 | 1.50978 | 1.51528 | 1.52085 | 1.5266 | 1.53226
293.15 K, Wavelength=657.2 nm | 1.48749 | 1.49254 | 1.49852 | 1.50384 | 1.50967 | 1.51394 | 1.52005 | 1.52522 | 1.53141
298.15 K, Wavelength=436.1 nm | 1.50717 | 1.51248 | 1.51824 | 1.52362 | 1.52954 | 1.53551 | 1.54144 | 1.54758 | 1.55354
298.15 K, Wavelength=513.9 nm | 1.49546 | 1.50075 | 1.50623 | 1.51165 | 1.51711 | 1.52288 | 1.5286 | 1.53447 | 1.54022
298.15 K, Wavelength=589.3 nm | 1.48927 | 1.49432 | 1.49956 | 1.50446 | 1.51023 | 1.51588 | 1.52148 | 1.52722 | 1.53287
298.15 K, Wavelength=633.2 nm | 1.48633 | 1.49149 | 1.49681 | 1.50206 | 1.50737 | 1.51298 | 1.51853 | 1.52424 | 1.52981
298.15 K, Wavelength=657.2 nm | 1.48512 | 1.49029 | 1.49594 | 1.50135 | 1.50706 | 1.51205 | 1.51776 | 1.52302 | 1.52941
303.15 K, Wavelength=436.1 nm | 1.50468 | 1.50986 | 1.51569 | 1.52094 | 1.52674 | 1.53306 | 1.53885 | 1.54503 | 1.55109
303.15 K, Wavelength=513.9 nm | 1.49315 | 1.49828 | 1.50376 | 1.50899 | 1.5146 | 1.52033 | 1.52606 | 1.532 | 1.53785
303.15 K, Wavelength=589.3 nm | 1.48673 | 1.49163 | 1.49715 | 1.5021 | 1.50776 | 1.51352 | 1.51899 | 1.52478 | 1.53052
303.15 K, Wavelength=633.2 nm | 1.48406 | 1.48893 | 1.49439 | 1.49932 | 1.50493 | 1.51036 | 1.51604 | 1.52181 | 1.52748
303.15 K, Wavelength=657.2 nm | 1.48275 | 1.48792 | 1.49332 | 1.49885 | 1.50461 | 1.50983 | 1.51528 | 1.52043 | 1.52666
308.15 K, Wavelength=436.1 nm | 1.50202 | 1.50759 | 1.5129 | 1.51879 | 1.52412 | 1.53042 | 1.53639 | 1.5425 | 1.54823
308.15 K, Wavelength=513.9 nm | 1.49045 | 1.49591 | 1.50103 | 1.50671 | 1.51215 | 1.51765 | 1.52366 | 1.52953 | 1.53505
308.15 K, Wavelength=589.3 nm | 1.48428 | 1.48939 | 1.49461 | 1.49955 | 1.50515 | 1.51099 | 1.51661 | 1.52237 | 1.52797
308.15 K, Wavelength=633.2 nm | 1.48142 | 1.48659 | 1.4917 | 1.49701 | 1.50224 | 1.50811 | 1.51368 | 1.51941 | 1.52477
308.15 K, Wavelength=657.2 nm | 1.48038 | 1.48538 | 1.49085 | 1.49669 | 1.50224 | 1.50738 | 1.51272 | 1.51825 | 1.52447
313.15 K, Wavelength=436.1 nm | 1.49957 | 1.5048 | 1.51044 | 1.51631 | 1.52152 | 1.52806 | 1.53388 | 1.54002 | 1.54572
313.15 K, Wavelength=513.9 nm | 1.48816 | 1.49321 | 1.49885 | 1.50413 | 1.50976 | 1.51512 | 1.52123 | 1.52715 | 1.53263
313.15 K, Wavelength=589.3 nm | 1.48198 | 1.48705 | 1.49215 | 1.49702 | 1.50259 | 1.50845 | 1.51422 | 1.52003 | 1.52558
313.15 K, Wavelength=633.2 nm | 1.47918 | 1.48409 | 1.48957 | 1.49422 | 1.49959 | 1.50542 | 1.51132 | 1.51708 | 1.52248
313.15 K, Wavelength=657.2 nm | 1.47807 | 1.48312 | 1.48866 | 1.49418 | 1.49947 | 1.50491 | 1.51025 | 1.51573 | 1.52168
318.15 K, Wavelength=436.1 nm | 1.49678 | 1.50247 | 1.50783 | 1.51372 | 1.51897 | 1.52533 | 1.53125 | 1.53748 | 1.54301
318.15 K, Wavelength=513.9 nm | 1.48564 | 1.49078 | 1.49611 | 1.50143 | 1.50751 | 1.51299 | 1.51892 | 1.52466 | 1.53007
318.15 K, Wavelength=589.3 nm | 1.47955 | 1.48455 | 1.48962 | 1.49455 | 1.49987 | 1.50614 | 1.51175 | 1.51758 | 1.52287
318.15 K, Wavelength=633.2 nm | 1.47656 | 1.48179 | 1.4869 | 1.49181 | 1.49721 | 1.50325 | 1.50887 | 1.51464 | 1.51989
318.15 K, Wavelength=657.2 nm | 1.47562 | 1.48056 | 1.48595 | 1.49181 | 1.49685 | 1.50222 | 1.50758 | 1.51388 | 1.51897
